Values quoted from earlier work, collected in patent US8173626B2, “Methods, dosing regimens and medications using anti-progestational agents for the treatment of disorders” (Danco Laboratories LLC, priority 2006, dated 2012).
Where two headings read alike, the source gives them in different places.

Key:
glucocorticoid receptors = target: T1, glucocorticoid receptors (Homo sapiens, UniProt P04150); details: cited from earlier work
T1 sequence (P04150 1-777): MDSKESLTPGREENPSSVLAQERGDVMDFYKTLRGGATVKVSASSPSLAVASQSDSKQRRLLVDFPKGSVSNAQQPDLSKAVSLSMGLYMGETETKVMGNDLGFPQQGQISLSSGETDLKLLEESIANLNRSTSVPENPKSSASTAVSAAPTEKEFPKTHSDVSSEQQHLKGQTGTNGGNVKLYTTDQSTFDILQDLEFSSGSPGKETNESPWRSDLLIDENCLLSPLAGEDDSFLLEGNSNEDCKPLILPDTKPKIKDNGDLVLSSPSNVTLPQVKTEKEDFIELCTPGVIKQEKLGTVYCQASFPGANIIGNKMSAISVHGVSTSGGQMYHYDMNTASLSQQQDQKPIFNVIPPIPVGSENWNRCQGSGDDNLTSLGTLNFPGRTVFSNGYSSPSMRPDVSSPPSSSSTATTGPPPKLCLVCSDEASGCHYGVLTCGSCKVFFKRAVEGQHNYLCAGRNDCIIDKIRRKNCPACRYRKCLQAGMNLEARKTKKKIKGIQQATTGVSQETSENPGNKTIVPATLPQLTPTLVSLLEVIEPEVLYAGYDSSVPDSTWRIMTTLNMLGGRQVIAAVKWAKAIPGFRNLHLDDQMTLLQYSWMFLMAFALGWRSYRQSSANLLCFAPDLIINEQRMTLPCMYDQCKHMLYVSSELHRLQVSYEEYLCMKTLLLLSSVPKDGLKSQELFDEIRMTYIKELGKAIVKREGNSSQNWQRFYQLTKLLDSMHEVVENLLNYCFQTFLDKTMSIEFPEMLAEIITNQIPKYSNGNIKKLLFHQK

breakthrough bleeding = details: cited from earlier work; for subjects with irregular or prolonged bleeding: Newton et al.; for days of vaginal bleeding: Tyler et al.

Compound: C[C@@H]1C[C@@H]2C(=C3CCC(=O)C=C31)[C@@H](c1ccc(N(C)C)cc1)C[C@@]1(C)[C@H]2CC[C@@]12CCCO2 [Org 31710, (6α,11β,17β)-11-(4-NMe2-phenyl)-6-Me-4′,5′-dihydrospiro[oestra-4,9-diene-17,2(3′H)-furan]-3-one]
- activity against glucocorticoid receptors (glucocorticoid receptors): substantially inactive

Compound: CC(=O)c1ccc([C@H]2C[C@@]3(C)[C@@H](CC[C@@]3(O)C(F)(F)C(F)(F)F)[C@@H]3CCC4=CC(=O)CCC4=C32)cc1 [ZK230211]
- activity against glucocorticoid receptors (glucocorticoid receptors): substantially inactive

Compound: (11β,17α)-(4-acetylphenyl)-17,23-epoxy-19,24-dinorchola-4,9,20-trien-3-one [Org 33628]
- activity against glucocorticoid receptors (glucocorticoid receptors): substantially inactive

Compound: CC(=O)O[C@]1(C(C)=O)CC[C@H]2[C@@H]3C[C@H](C)C4=CC(=O)CC[C@]4(C)[C@H]3CC[C@@]21C [DMPA, depo-medroxyprogesterone acetate]
- subjects with irregular or prolonged bleeding (breakthrough bleeding; 9-12th month of use): 34%
- days of vaginal bleeding (breakthrough bleeding; between the first and second injection): around 30 % of days
- days of vaginal bleeding (breakthrough bleeding; between the second and third injection): ~20 % of days
- subjects with irregular or prolonged bleeding (breakthrough bleeding; first 3 months of DMPA): 90%
- discontinuation rate due to breakthrough bleeding (breakthrough bleeding; first year of use, Toppozada et al.): ≤ 40%

Compound: C[C@H]1CC2=CC(=O)CCC2=C2[C@@H]1[C@@H]1CC[C@@]3(CCCO3)[C@@]1(C)C[C@@H]2c1ccc(N(C)C)cc1 [Org 31806, (7β,11β,17β)-11-(4-NMe2-phenyl)-7-Me-4′,5′-dihydrospiro(oestra-4,9-diene-17,2′(3′H)-furan)-3-one]
- activity against glucocorticoid receptors (glucocorticoid receptors): substantially inactive
